Measurements: PubChem BioAssay AID732 (Emory University Molecular Libraries Screening Center, 2007)
The source made the active and inactive calls. How the calls were made is not given here.

Each compound was assayed on in vivo angiogenesis, blood vessel count (assay: angiogenesis inhibition in living animals, in vivo study, HTS (AID 732;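 further: zebrafish embryos dosed at one day post fertilization; 0% = reference inhibitor and 100% = plate mean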)). Settings: active compounds read low;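 tested at 30 µM in the well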.

Row | Compound | vessel count % control
1 | CC1=C[C@@H]2c3cccc4[nH]cc(c34)C[C@H]2N(C)C1 | 81.3% (inactive)
2 | NCC(O)c1ccc(O)cc1 (stereo not drawn) | 103% (inactive)
3 | O=C1CC2(CCCC2)CC(=O)N1CCCCN1CCN(c2ncccn2)CC1 | 114% (inactive)
4 | CN1CCc2cc(NC(=O)Nc3cccnc3)ccc21 | 86.6% (inactive)
5 | CCCn1c(=O)c2[nH]c(-c3ccc(OCC(=O)Nc4ccc(C#N)cc4)cc3)nc2n(CCC)c1=O | 84.9% (inactive)
6 | NC(=O)c1cc[n+](CC2=C(C(=O)O)N3C(=O)[C@@H](NC(=O)[C@@H](c4ccccc4)S(=O)(=O)[O-])[C@H]3SC2)cc1 | 99.9% (inactive)
7 | CSC(=N)N | 68.6% (inactive)
8 | N#CC(=C(\N)Sc1ccccc1N)/C(C#N)=C(/N)Sc1ccccc1N | 94.5% (inactive)
9 | NC(=O)CN1CC(O)CC1=O (stereo not drawn) | 90.1% (inactive)
10 | Nc1c2c(nc3ccccc13)CCCC2O (stereo not drawn) | 86.4% (inactive)
11 | CC[N+](CC)(CC)CCOc1cccc(OCC[N+](CC)(CC)CC)c1OCC[N+](CC)(CC)CC | 101% (inactive)
12 | Fc1ccc(C(c2ccc(F)cc2)N2CCN(C/C=C/c3ccccc3)CC2)cc1 | 91.5% (inactive)
13 | Nc1ccncc1 | 118% (inactive)
14 | CCCNC(=O)NS(=O)(=O)c1ccc(Cl)cc1 | 124% (inactive)
15 | CCn1cc(C(=O)O)c(=O)c2cc3c(cc21)OCO3 | 121% (inactive)
16 | C#CCN[C@H](C)Cc1ccccc1 | 114% (inactive)
17 | NC(N)=NC(=O)c1nc(Cl)c(N)nc1N | 117% (inactive)
18 | S=C=Nc1cccc(C2(N3CCCCC3)CCCCC2)c1 | 91% (inactive)
19 | OC[C@H]1O[C@@H](n2cnc3c(NC4CCCC4)ncnc32)C(O)[C@H]1O (stereo partly drawn) | 94.3% (inactive)
20 | COCCc1ccc(OCC(O)CNC(C)C)cc1 (stereo not drawn) | 128% (inactive)
21 | C(=C\c1ccccc1)/CN1CCN(C(c2ccccc2)c2ccccc2)CC1 | 88.9% (inactive)
22 | CCCCCCCCCC[Si](C)(C)CCC(=O)NC(Cc1ccc(C)cc1)c1ccccc1 (stereo not drawn) | 109% (inactive)
23 | CCn1c(=O)c2[nH]c(-c3ccccc3)nc2n(CC)c1=O | 63.2% (inactive)
24 | Cn1cnc2c(NCc3ccccc3)nc(NCCO)nc21 | 98.8% (inactive)

Row | Compound | vessel count % control
25 | NC(CCP(=O)(O)O)C(=O)O (stereo not drawn) | 88.9% (inactive)
26 | O=[N+]([O-])c1cccc2cn[nH]c12 | 136% (inactive)
27 | CCN(CC)CCCC(C)Nc1c2ccc(Cl)cc2nc2ccc(OC)cc12 (stereo not drawn) | 0% (inactive)
28 | Cn1cnc2c1c(=O)[nH]c(=O)n2C | 118% (inactive)
29 | O=C1CCCN1CC#CCN1CCCC1 | 99.6% (inactive)
30 | O=c1c(O)c(-c2ccc(O)cc2O)oc2cc(O)cc(O)c12 | 108% (inactive)
31 | N#CC(C#N)=Cc1ccc([N+](=O)[O-])c(O)c1 | 88.6% (inactive)
32 | COC(=O)c1c(C)[nH]c(C)c1C(=O)c1ccccc1Cc1ccccc1 | 102% (inactive)
33 | Nc1nc(Cl)nc2c1ncn2[C@@H]1O[C@H](COP(=O)(O)OP(=O)(O)OP(=O)(O)O)[C@H](O)C1O (stereo partly drawn) | 107% (inactive)
34 | NC(CCCP(=O)(O)O)C(=O)O (stereo not drawn) | 75.8% (inactive)
35 | O=C(CCNNC(=O)c1ccncc1)NCc1ccccc1 | 67.2% (inactive)
36 | CN1C2CCC1CC(OC(c1ccccc1)c1ccc(Cl)cc1)C2 (stereo not drawn) | 98.7% (inactive)
37 | Nc1nc2c(ncn2COCCO)c(=O)[nH]1 | 110% (inactive)
38 | C[C@H](O)C(=O)C1=Nc2c(nc(N)[nH]c2=O)NC1 | 117% (inactive)
39 | CCC1(c2ccc(N)cc2)CCC(=O)NC1=O (stereo not drawn) | 98.8% (inactive)
40 | Nc1ncnc2c1ncn2[C@@H]1O[C@H](COP(=O)(O)OP(=O)(O)OP(=O)(O)OP(=O)(O)OC[C@@H]2O[C@H](n3cnc4c(N)ncnc43)C(O)[C@@H]2O)[C@H](O)C1O (stereo partly drawn) | 89.7% (inactive)
41 | Nn1nnc2ccccc21 | 109% (inactive)
42 | C/C=C1\C(=O)CC2C3CCC4=CC(=O)CC[C@]4(C)C3CC[C@]12C (stereo partly drawn) | 102% (inactive)
43 | CC[C@@H](CO)NC(=O)[C@@H]1C=C2c3cccc4c3c(cn4C)C[C@H]2N(C)C1 | 70.9% (inactive)
44 | CNc1ccc2oc(C[C@H]3O[C@@]4(CC[C@H]3C)O[C@H]([C@H](C)C(=O)c3ccc[nH]3)[C@H](C)C[C@H]4C)nc2c1C(=O)O | 0% (inactive)
45 | CC(C)NCC(O)c1ccc(NS(C)(=O)=O)cc1 (stereo not drawn) | 95.6% (inactive)
46 | COc1ccc2c(c1)c(CC(=O)O)c(C)n2Cc1ccc(F)cc1 | 106% (inactive)
47 | CCCCOc1cc(CC2CNC(=O)N2)ccc1OC (stereo not drawn) | 106% (inactive)
48 | Nc1ncnc2c1nc(Sc1ccc(Cl)cc1)n2C1OC2COP(=O)(O)O[C@@H]2[C@@H]1O (stereo partly drawn) | 88.9% (inactive)
